Source: US7678386B2, “Liposomes coated with selected antibodies that bind to aminophospholipids” (Board of Regents the University of Texas, priority 2002, dated 2010)

Experiments:
[1] = tested on: vascular endothelium of MDA-MB-231 tumors; assay: Double staining study, orthotopic MDA-MB-231 tumors; assay type: in vivo, mouse; conditions: biotinylated reagent i.v., one hour
Experimental: In further studies, mice bearing MDA-MB-231 tumors (0.3-0.7 cm^3 in volume) were injected intravenously with 50 μg of biotinylated 9D2, control IgM or annexin V (six mice per group). Biotinylated reagents were first incubated with streptavidin-Cy3 conjugate, washed in PBS. then incubated with MECA 32 antibody followed by FITC-tagged anti-rat IgG secondary antibody. Single images, taken with appropriate filters for Cy3 (red) and FITC (green) fluorescence respectively, were captured by digital camera and transferred to a computer. […] The same method was used to analyze tumors from mice injected with control rat IgM or saline. The percentage of vessels with localized 9D2 or annexin V was calculated as follows: mean number of yellow vessels per field divided by mean number of green (total) vessels multiplied by 100.
Double staining studies were also performed in which mice bearing orthotopic MDA-MB-231 breast tumors were injected intravenously with biotinylated 9D2 antibody, biotinylated control IgM or biotinylated annexin V. One hour later, the mice were exsanguinated, and their tumors were removed and frozen sections were cut. The tumor sections were then stained with Cy3-conjugated streptavidin to detect the biotinylated proteins and with FITC-conjugated MECA32 to detect vascular endothelium. […]

[2] = tested on: Factor Xa generation on IL-1α-stimulated bEnd.3 cells; assay: Factor Xa formation induced by coaguligand (chromogenic assay); assay type: cell-based, mouse; conditions: 10 μg per ml
Experimental: The ability of Annexin V to affect Factor Xa formation induced by coaguligand was determined by a chromogenic assay. IL-1α-stimulated bEnd.3 cells were incubated with anti-VCAM-•tTF and permeabilized by saponin. Annexin V was added at concentrations ranging from 0.1 to 10 μg/ml and cells were incubated for 30 min. before addition of diluted Proplex T. The amount of Factor Xa generated in the presence or absence of Annexin V was determined. Each treatment was performed in duplicate and repeated at least twice.

[3] = tested on: vascular endothelium of tumors and normal organs; assay: Detection of anionic phospholipids in tumor bearing mice in vivo (9D2, annexin V); set-up: species or system mouse
Experimental: For localization studies, 2×10^7 L540 human Hodgkin's lymphoma cells or 1×10^7 cells of other tumor types were injected subcutaneously into the right flank of SCID mice (Charles River. Wilmington, Mass.). Tumors were allowed to reach a volume of 0.4-0.7 cm^3. A minimum of three animals per group was used. Studies were replicated at least three times.
Female nu/nu or SCID mice were purchased from Charles River. MDA-MB-231 human mammary carcinoma cells were implanted into the mammary fat pad according to a published protocol (Price. 1996). Briefly, mice were anesthetized and a 5-mm incision was made in the skin over the lateral thorax. The mammary pad was exposed to ensure the correct site for injection of 1×10^7 MDA-MB-231 cells re-suspended in 0.1 ml of saline.
To detect externally-positioned phospholipids, methods were performed essentially as previously described (Example V; Ran et al., 1998). Tumor-bearing SCID mice were injected intravenously with either 50 μg of 9D2 or biotinylated 9D2 antibody or 100 μg of biotinylated annexin V. Sixty min later mice were sacrificed and their blood circulation was exsanguinated and perfused with heparinized saline as previously described (Burrows et al., 1992). All major organs and tumor were harvested and snap-frozen for preparation of cryosections.
Sections were blocked with PBS containing 10% serum. To prevent loss of phospholipids during slide processing, detergents and organic solvents were omitted from blocking and washing buffers. Rat IgM was detected using goat anti rat IgM (μspecific)-HRP conjugate followed by development with carbazole or DAB (Fries et al., 1993). Biotinylated reagents were detected by streptavidin conjugated to HRP.
Tumor sections derived from mice injected with saline or rat IgM of irrelevant specificity served as negative controls. Additional controls consisted of incubating the slides in 1% Triton solution or in acetone for 10 min. These treatments extract phospholipids. No signal was detected under these conditions. The number of positive vessels per high power field was determined at magnification of ×100. At least 10 fields per section were examined and the average percentage of positive vessels was calculated. Staining of the sections by this method for the presence of 9D2 or annexin V detects cells having externalized anionic phospholipids that were accessible for binding by the reagents in vivo.
Structures with localized 9D2 antibody or annexin V were identified as blood vessels by morphological appearance on DAB-stained sections and by co-incident staining with the pan-endothelial cell marker, MECA 32 on serial sections of frozen tissues. Quantification on DAB-stained sections was done by counting vessels stained by MECA 32, 9D2 or annexin V in serial sections of a tumor. Six slides of each tumor type derived from 6 mice injected with 9D2 antibody, control rat IgM or annexin V were examined. At least 10 random fields per section (0.317 mm^2/field) were scored in blinded fashion by two independent observers. The mean numbers and standard errors of vessels stained by 9D2, annexin V or MECA 32 were calculated. The mean number of 9D2 or annexin V-positive vessels determined in each tumor type group was compared to the mean number of MECA 32-positive vessels in the same tumor group. The percentage of 9D2 or annexin V-positive vessels was calculated.

Annexin V: high affinity PS binding ligand; natural ligand of anionic phospholipids and PE
MECA 32 positive vessels that bound the reagent [1]: About 40% | inhibition of factor Xa production [2]: 58% | PS-positive vessels of MECA 32-stained vessels (mean ±SE) ([3]; B16 tumor): 21.3 ± 6.6% | PS-positive vessels of MECA 32-stained vessels (mean ±SE) ([3]; L540cy tumor): 16.7 ± 3.9% | PS-positive vessels of MECA 32-stained vessels (mean ±SE) ([3]; MDA-MB-231 tumor): 45.3 ± 5.6% | PS-positive vessels of MECA 32-stained vessels (mean ±SE) ([3]; MDA-MB-231 tumor, listed as annexin V): 40% | PS-positive vessels of MECA 32-stained vessels (mean ±SE) ([3]; NCI-H358 tumor): 15% | vascular localization in normal organs ([3]; nine of ten normal organs examined (kidney tubules non-specific)): No vascular localization
